We go through six molecules from patent US20110224182A1, “SALTS OF (3-0-(3',3'-[…]) BETULINIC ACID AND SOLID STATE FORMS THEREOF” (Myriad Pharmaceuticals, Incorporated, priority 2007, published 2011).

Data set [1] in a line: In vivo pharmacokinetic studies (Method H), plasma levels by LC-MS/MS. The arrangement: species or system male Sprague-Dawley rats. Conditions: rat; for Mean plasma concentration: as free drug. On the procedure: Method H—In Vivo Pharmacokinetic Studies
In vivo experiments were conducted in male Sprague-Dawley rats having a body mass of 225 g to 275 g with an appropriate cannula surgically inserted. Rats were supplied food and water ad libitum until 12 hours before dosing when food was removed. Food was withheld until four hours post-dosing. Water was available ad libitum. Each of group of rats consisted of 3 rats.
Dosing solutions were prepared the same day as dose administration. […] The administered dose of each salt was 1 mg/kg for intravenous administration and 10 mg/kg for oral gavage. Formulations for intravenous administration were filtered after preparation. Concentrations of respective dosing solutions were as depicted in Table 1 below.
Sampling was performed at predose, 2, 5, 15, and 30 minutes, 1, 2, 4, and 8 hours post dose. Blood samples were collected, placed into chilled tubes containing sodium heparin, and kept chilled until centrifuged at 4° C. at 13,000 rpm for 5 minutes. Plasma was separated and stored at −60° C. to −80° C. until analyzed.
Plasma levels of the compounds were determined by LC-MS/MS. Quantification of the compounds in plasma was performed against a calibration curve generated by serial dilution of a test article DMSO stock solution into blank heparinized rat plasma (50, 100, 200, 500, 1,000, 2,000, 5,000, and 10,000 ng/mL final concentrations of free drug). Quality control samples were prepared in the same fashion (250, 1,000, and 5,000 ng/mL final concentrations of free drug). The standard curve and quality control DMSO stock solutions were derived from independent weightings.
Plasma concentrations versus time data are plotted in FIGS. 26 through 37.
All data are expressed as ng/mL of the free drug. Samples that were below the limit of quantification (“bloq”) were assigned a value of zero for the mean concentration calculations.

Data set [2] can be described thus: Solubility (Method B): solvent added in portions until a clear solution is obtained. The class given is physicochemical. The note with it: ambient temperature. The method, then: Method B-Solubility Measurement of the water solubility of the salts of this invention is accomplished by using methods well known to those skilled in the art. Specifically, to a weighed amount of DSB (+)-[…], DSB choline […], DSB diethanolamine […], or DSB diethylamine […], a solvent is added in small portions until a clear solution is obtained. The total volume of the solution is measured. The solubility of the particular DSB salt, in mg/mL, is calculated by dividing the weight of the salt (in mg), by the volume of the solution (in mL).

[3] abbreviates: oral gavage 10 mg/kg, 0.083 h post dose.
Setting [4] is: oral gavage 10 mg/kg, 0.25 h post dose.
Where [5] appears, read: oral gavage 10 mg/kg, 0.5 h post dose.
The mark [6] stands for this setting: oral gavage 10 mg/kg, 1 h post dose.
Setting [7] is: oral gavage 10 mg/kg, 2 h post dose.
Where [8] appears, read: oral gavage 10 mg/kg, 4 h post dose.
Setting [9] is: oral gavage 10 mg/kg, 8 h post dose.
Setting [10] is: oral gavage 10 mg/kg, relative to DSB-2 NMG intravenous.

Converted amounts (≈) assume the structure as drawn. Read-outs that look alike come from different tables or passages of the source.

bis-choline salt of DSB [DSB-2 Choline]: the “% Bioavailability” value in data set [1] (in vivo, 10 mg/kg) is on record as 30.3%. This molecule displayed an AUC24 h in data set [1] (in vivo, po, 10 mg/kg) of 20872.2 ng·h/mL.
Consider “3-O-(3′,3′-dimethylsuccinyl)betulinic acid, bis-diethylamine salt [DSB-2 Diethylamine]”, for which the Mean plasma concentration amounted to 352.7 ng/mL in data set [1] (setting [3]); 4576.7 ng/mL in data set [1] (setting [4]); 7420.0 ng/mL in data set [1] (setting [5]); 6873.3 ng/mL in data set [1] (setting [6]); 3750.0 ng/mL in data set [1] (setting [7]); 1886.7 ng/mL in data set [1] (setting [8]). The Mean plasma concentration in data set [1] (setting [9]) came out at 233.7 ng/mL. Besides, in data set [1] (oral gavage 10 mg/kg, mean), the AUC24 h amounted to 21172.3 ng·h/mL. In data set [1] (oral gavage 10 mg/kg, mean), this molecule registered a Cmax of 7453.3 ng/mL. Moreover, the Tmax in data set [1] (oral gavage 10 mg/kg, mean) came to 40.2 min. Moreover, the “% Bioavailability” value in data set [1] (setting [10]) is 30.7%.
For `C=C(C)[C@@H]1CC[C@]2(C(=O)O)CC[C@]3(C)[C@H](CC[C@@H]4[C@@]5(C)CC[C@H](OC(=O)CC(C)(C)C(=O)O)C(C)(C)[C@@H]5CC[C@]43C)[C@@H]12.OCCNCCO.OCCNCCO` [DSB-2 Diethanolamine, diethanolamine disalt of DSB], the Mean plasma concentration in data set [1] (setting [3]) turned out to be 880.7 ng/mL; in data set [1] (setting [4]), 5190.0 ng/mL; in data set [1] (setting [5]), 5743.3 ng/mL; in data set [1] (setting [6]), 5873.3 ng/mL; in data set [1] (setting [7]) it was 4730.0 ng/mL; in data set [1] (setting [8]), 1830.0 ng/mL. Moreover, the Mean plasma concentration in data set [1] (setting [9]) turned out to be 1149.3 ng/mL. Further, the AUC24 h in data set [1] (oral gavage 10 mg/kg, mean) came out at 30958.7 ng·h/mL. In addition, the Cmax in data set [1] (oral gavage 10 mg/kg, mean) was 6720.0 ng/mL. In data set [1] (oral gavage 10 mg/kg, mean), the Tmax turned out to be 72 min. For the same molecule, the “% Bioavailability” value in data set [1] (setting [10]) is reported as 44.9%.
Turning to “bis-(+)-arginine salt of DSB [DSB-2 (+)-Arginine]”, the Mean plasma concentration in data set [1] (setting [3]) was found to be 2003.3 ng/mL; in data set [1] (setting [4]), 6796.7 ng/mL; in data set [1] (setting [5]) it was 6140.0 ng/mL; in data set [1] (setting [6]), 5793.3 ng/mL; in data set [1] (setting [7]), 4590.0 ng/mL; in data set [1] (setting [8]), 1615.3 ng/mL. Moreover, the Mean plasma concentration in data set [1] (setting [9]) was 532.3 ng/mL. Further, the AUC24 h in data set [1] (oral gavage 10 mg/kg, mean) worked out at 24342.9 ng·h/mL. In data set [1] (oral gavage 10 mg/kg, mean), this molecule gave a Cmax of 7093.3 ng/mL. For the same molecule, the Tmax in data set [1] (oral gavage 10 mg/kg, mean) came out at 19.8 min. The “% Bioavailability” value in data set [1] (setting [10]) is on record as 35.3%.
As to `C=C(C)[C@@H]1CC[C@]2(C(=O)O)CC[C@]3(C)[C@H](CC[C@@H]4[C@@]5(C)CC[C@H](OC(=O)CC(C)(C)C(=O)O)C(C)(C)[C@@H]5CC[C@]43C)[C@@H]12.CNC[C@H](O)[C@@H](O)[C@H](O)[C@H](O)CO.CNC[C@H](O)[C@@H](O)[C@H](O)[C@H](O)CO` [DSB-2 NMG, reference compound], the entries for the “% Bioavailability” value in data set [1] (intravenous 1 mg/kg (reference)) and in data set [1] (setting [10]) were 100.0% and 26.2%, respectively. The AUC24 h came out at 6890.6 ng·h/mL in data set [1] (intravenous 1 mg/kg, mean) and 18041.1 ng·h/mL in data set [1] (oral gavage 10 mg/kg, mean). In addition, the Cmax in data set [1] (intravenous 1 mg/kg, mean) was determined as 13785.9 ng/mL; in data set [1] (oral gavage 10 mg/kg, mean) it was 4480.0 ng/mL. Moreover, the Tmax in data set [1] (intravenous 1 mg/kg, mean) is 0 min; in data set [1] (oral gavage 10 mg/kg, mean), 96 min. Also, the Mean plasma concentration in data set [1] (setting [3]) turned out to be 491.0 ng/mL; in data set [1] (setting [4]) it was 3706.7 ng/mL; in data set [1] (setting [5]), 3246.7 ng/mL; in data set [1] (setting [6]), 3236.7 ng/mL; in data set [1] (setting [7]), 1973.7 ng/mL; in data set [1] (setting [8]) it was 1662.3 ng/mL. Moreover, the Mean plasma concentration in data set [1] (setting [9]) is 635.7 ng/mL.
On to `C=C(C)[C@@H]1CC[C@]2(C(=O)O)CC[C@]3(C)[C@H](CC[C@@H]4[C@@]5(C)CC[C@H](OC(=O)CC(C)(C)C(=O)O)C(C)(C)[C@@H]5CC[C@]43C)[C@@H]12` [DSB Free Acid, 3-O-(3′,3′-dimethylsuccinyl)betulinic acid], for which the solubility in data set [2] (1-propanol, organic solvent or mixture, thermodynamic from solid, 1-propanol, read-out: Solubility in 1-propanol) stood at 6000 µg/mL (≈ 10.3 mM); in data set [2] (2,2,2-trifluoroethanol, organic solvent or mixture, thermodynamic from solid, 2,2,2-trifluoroethanol, read-out: Solubility in 2,2,2-trifluoroethanol), 2500 µg/mL (≈ 4.27 mM); in data set [2] (2-propanol, organic solvent or mixture, thermodynamic from solid, 2-propanol, read-out: Solubility in 2-propanol), 6000 µg/mL (≈ 10.3 mM); in data set [2] (ethanol, organic solvent or mixture, thermodynamic from solid, ethanol, read-out: Solubility in ethanol) it was 15000 µg/mL (≈ 25.6 mM); in data set [2] (methanol, organic solvent or mixture, thermodynamic from solid, methanol, read-out: Solubility in methanol), 7500 µg/mL (≈ 12.8 mM); in data set [2] (water, thermodynamic from solid, water, read-out: Solubility in water) it was 350 µg/mL (≈ 0.598 mM).
